Assay results: patent US9216208B2, “Topical ophthalmic peptide formulation” (BCN Peptides, S.A., priority 2009, dated 2015)

Key:
[1] = test system: streptozotocin-induced diabetic rats; assay: Electroretinography after topical ocular treatment in diabetic rats; assay type: in vivo, Sprague Dawley rats; design: implicit time of the b-wave at 0 db compared to pretreatment: unit not given beside the values; details: for difference between the amplitude of the second OP (OP2) of the b-wave at 0 db / implicit time of the b-wave at 0 db compared to pretreatment: STZ 60 mg/kg rats; for difference between the amplitude of the second OP (OP2) of the b-wave at 0 db: FIG. 2; for implicit time of the b-wave at 0 db compared to pretreatment: after 14 days of treatment; for b-wave amplitude at −10 db and 0 db / b-wave amplitude at −30 db: compared to the diabetic group
Protocol: (§1) Streptozotocin (STZ), 60 mg/Kg, was administered to Sprague Dawley rats. The animals were divided in four groups as detailed in Table 1:
(§2) Two days after STZ was administered, animals were treated daily with one or two drops of vehicle (Group 2), eye drops of example 4 (Group 3) or eye drops of example 5 (Group 4) for additionally 14 days. Healthy control animals were only treated daily with one or two drops of vehicle (Group 1).
Electroretinography is a technique used clinically to evaluate retinal function in diabetic retinopathy. Several parameters can be affected in early stages of the disease: implicit time, amplitude and oscillatory potentials [Tzekov et al., Survey of Ophthalmology, 1999, 44(1): 53-60]. The increment of the implicit time and diminishment of amplitude of the oscillatory potentials (OPs) are also observed in streptozotocin-induced diabetic rats [Hancok et al., Investigative Ophthalmology & Visual Science, 2004, 45(3): 1002-1008].

[2] = test system: retinal cells of streptozotocin-induced diabetic rats; assay: Degree of apoptosis of the retina by TUNEL in diabetic rats; assay type: in vivo, Sprague Dawley rats; details: for retinal degeneration (TUNEL positive cells, confocal images): after 14 days of treatment, FIG. 4; for % Apoptotic cells GCL: ganglion cell layer; for % Apoptotic cells GCL / % Apoptotic cells INL / % Apoptotic cells ONL / % Apoptotic cells RPE: 14 days of treatment; for % Apoptotic cells INL: inner nuclear layer; for % Apoptotic cells ONL: outer nuclear layer; for % Apoptotic cells RPE: retinal pigment epithelium
Protocol: as §1, §2
(§3) On day 14, the animals were sacrificed and ocular tissues paraffined. Glial activation and number of apoptotic cells were evaluated as markers of the first step in the development of diabetic retinopathy: retinal neurodegeneration [Carrasco et al., Diabetes Care; 2007, 30(11): 1-7].
The evaluation of the degree of apoptosis of the retina after 14 days of treatment was done by using the TUNEL (“Terminal Transferase dUTP Nick-End Labeling”) technique. The In Situ Cell Death Detection Kit (Roche Diagnostics, Mannheim, Germany) was used. Ocular sections were desparaffined, rehydrated and washed in PBS. Three confocal images (40×) corresponding to a 317.13 μm×317.13 μm surface were obtained for each section. The total number of nuclei and nuclei positive for TUNEL were quantified with the Image J software (http://rsbweb.nih.gov/ij). Staining with propidium iodide (PI) was done for examining the nucleus morphology and discard false positives. […] Retinal degeneration correlated with a higher number of apoptotic cells (brightest labeling means TUNEL positive) observed in streptozotocin-induced diabetic rats (Group 2).
The increment in the percentage of apoptotic cells is significant in diabetic rats (Group 2). Topical ocular treatment with somatostatin (Group 3) or octreotide (Group 4) reduced the number of apoptotic cells till control levels (Group 1).

[3] = test system: Glial Fibrillar Protein (GFAP); assay: Glial activation by GFAP immunofluorescence (confocal microscopy) in retina of diabetic rats; assay type: in vivo, Sprague Dawley rats; details: for glial cell activation (GFAP expression, confocal images): day 14, ganglion cell layer, FIG. 3; for GFAP fluorescence value: day 14, normalized to the analysed area (21705.33 μm^2), diabetic Group 2 6871±159, healthy Group 1 2095±26
Protocol: as §1, §2, §3
Glial activation was determined analysing Glial Fibrillar Protein (GFAP) immunofluorescence by confocal microscopy. Ocular sections of 7 μm thickness were fixed on high adherent coverslips (Visionbiosystems, Newcastle Upon Tyne, UK). They were desparaffined, rehydrated and washed in phosphate buffer saline (PBS). Unspecific unions were blocked incubating the samples for 1 h in PBS 1% BSA (Bovine Serum Albumin) 0.5% Triton X-100. Thereafter, the primary rabbit anti-human GFAP antibody (Sigma, Madrid, Spain) diluted in the blocking buffer (1:100) was incubated for 36 h at 4° C. After three washings for 5 min with PBS, sections were incubated with a secondary antibody anti […] labelled with Alexa Fluor® 488 (Invitrogen, Eugene, Oreg.) for 1 h at room temperature. Labelled sections were washed and mounted with fluorescent medium containing 4,6-diamidino-2-phenylindole (DAPI) for staining cell nuclei (Vector Laboratories, Burlingame, Calif.). The sections positives for GFAP were captured in a confocal microscope (FV1000, Olympus. Hamburg, Germany) obtaining optical sections with a 488 nm laser for Alexa 488 and a 405 nm laser for DAPI. GFAP fluorescence was quantified in each image with the Fluoview ASW 1.4 software (Olympus, Hamburg, Germany). Results were normalized to the analysed area (21705.33 μm^2).

[4] = Evaluation of the concentration of topical ophthalmic somatostatin in the retina (Western blot); assay type: in vivo, C57BL/6 mice; details: eye drops of example 1, 1 drop of 5 μL twice a day for 5 days in right eye vs placebo in left eye; 2 hours after last dosage; Western blot densitometry
Protocol: Eight-week old C57BL/6 mice were used. The handling and care of the animals was carried out following the Institut de Recerca del Hospital Universitari Vall d'Hebron protocol and the European Economic Community and A.R.V.O. (Association for Research in Vision and Opthalmology) international guidelines (order 86/609/CEE). The animals were kept in individual cages in the animal facilities at a controlled temperature (20°) and humidity (60%), under constant cycles of light-darkness which last 12 hours and had free access to food and drink. The eye drops of somatostatin-14 from example 1 (1 drop of 5 μL) were administered to the right eye and the placebo (saline solution) to the left eye. Two drops were administered per day, one in the morning and another in the evening, for 5 days. The animals were euthanized by cervical dislocation under anesthetic 2 hours after the last dosage. Immediately afterwards the eyeballs were extracted and were frozen at −80° until handling. […] The quantity of somatostatin-14 in the retina was determined by Western blot. […] A densitometric analysis was carried out (Densitometer GS-800. Bio-Rad. Laboratories, Hercules, Calif., USA) and the results are expressed as arbitrary units. […] On control mice, who received the placebo in both eyes, no differences were detected in the concentration of somatostatin between both eyes.

Structure (SMILES) | difference between the amplitude of the second OP (OP2) of the b-wave at 0 db ([1]; Left eye (2 drops per day)) | implicit time of the b-wave at 0 db compared to pretreatment ([1]; Left eye (2 drops per day)) | difference between the amplitude of the second OP (OP2) of the b-wave at 0 db ([1]; Right eye (1 drop per day)) | implicit time of the b-wave at 0 db compared to pretreatment ([1]; Right eye (1 drop per day)) | b-wave amplitude at −10 db and 0 db [1] | b-wave amplitude at −30 db [1] | retinal degeneration (TUNEL positive cells, confocal images) [2] | % Apoptotic cells GCL [2] | % Apoptotic cells INL [2] | % Apoptotic cells ONL [2] | % Apoptotic cells RPE [2] | glial cell activation (GFAP expression, confocal images) [3] | GFAP fluorescence value [3] | amount of somatostatin in the retina [4]
C[C@@H](O)[C@@H]1NC(=O)[C@H](CCCCN)NC(=O)[C@@H](Cc2c[nH]c3ccccc23)NC(=O)[C@H](Cc2ccccc2)NC(=O)[C@@H](NC(=O)[C@H](N)Cc2ccccc2)CSSC[C@@H](C(=O)N[C@H](CO)[C@@H](C)O)NC1=O [octreotide] | 55.1 | 1.1 | 45.5 | 8.8 | effective only at the highest dose | prevented the diminishment | prevented retinal degeneration | 7% | 0.1% | 5% | 11% | prevented glial cell activation | 1696±48 | –
C[C@H](N)C(=O)NCC(=O)N[C@H]1CSSC[C@@H](C(=O)O)NC(=O)[C@H](CO)NC(=O)[C@H]([C@@H](C)O)NC(=O)[C@H](Cc2ccccc2)NC(=O)[C@H]([C@@H](C)O)NC(=O)[C@H](CCCCN)NC(=O)[C@H](Cc2c[nH]c3ccccc23)NC(=O)[C@H](Cc2ccccc2)NC(=O)[C@H](Cc2ccccc2)NC(=O)[C@H](CC(N)=O)NC(=O)[C@H](CCCCN)NC1=O [somatostatin, somatostatin-14] | 68.7 | 4.9 | 44.8 | 9.0 | prevented the diminishment | prevented the diminishment | prevented retinal degeneration | 14% | 1% | 3% | 6% | prevented glial cell activation | 2514±90 | greater in the treated eye on both animals
